Molecular target: T1, human GLP-1 receptor (Homo sapiens, UniProt P43220)
T1 construct: expressed in transfected cells
Experiment: GLP-1R cAMP Assay
Type: cell-based
Conditions: cAMP accumulation in CHO cells stably overexpressing the human GLP-1 receptor; 30 min treatment; HitHunter cAMP kit; read-out: EC50
How it was run: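 CHO cells stably overexpressing human GLP-1R, 10,000 cells/well, treated with compound in 20-point dose response in triplicate for 30 min. cAMP accumulation read by enzyme-complementation luminescence after lysis and overnight incubation; dose-response curves fitted.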

T1 sequence (P43220 24-463): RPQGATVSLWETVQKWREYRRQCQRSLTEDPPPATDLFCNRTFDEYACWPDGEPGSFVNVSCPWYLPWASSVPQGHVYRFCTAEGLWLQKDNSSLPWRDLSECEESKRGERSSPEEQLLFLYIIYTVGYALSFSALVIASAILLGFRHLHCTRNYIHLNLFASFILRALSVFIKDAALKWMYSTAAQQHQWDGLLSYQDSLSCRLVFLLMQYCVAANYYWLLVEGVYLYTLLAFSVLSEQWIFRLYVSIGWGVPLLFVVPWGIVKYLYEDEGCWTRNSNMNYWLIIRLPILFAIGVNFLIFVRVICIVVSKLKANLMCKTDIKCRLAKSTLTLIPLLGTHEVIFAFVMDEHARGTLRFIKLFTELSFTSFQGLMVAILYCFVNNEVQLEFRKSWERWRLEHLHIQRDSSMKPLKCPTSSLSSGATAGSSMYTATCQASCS

| EC50 [nM] | Structure (SMILES) |
| --- | --- |
| < 50 | O=C(O)c1ccc2nc(CN3CCC(Oc4ccnc(COc5ccc(F)cc5Cl)c4)CC3)n(C[C@@H]3CCO3)c2c1 [Example 220, (S)-2-((4-((2-((2-Chloro-4-fluorophenoxy)methyl)pyridin-4-yl)oxy)piperidin-1-yl)methyl)-1-(oxetan-2-ylmethyl)-1H-benzo[d]imidazole-6-carboxylic acid] |
| < 50 | O=C(O)c1ccc2nc(CN3CCC(Cc4ccc(COc5ccc(Cl)cc5Cl)o4)CC3)n(C[C@@H]3CCO3)c2c1 [Example 72, (S)-2-((4-((5-((2,4-Dichlorophenoxy)methyl)furan-2-yl)methyl)piperidin-1-yl)methyl)-1-(oxetan-2-ylmethyl)-1H-benzo[d]imidazole-6-carboxylic acid] |
| > 500 | Cc1ccc(N(C)Cc2cccc(C(=O)N3CCN(Cc4nc5ccc(C(=O)O)cc5n4C[C@@H]4CCO4)CC3)c2)c(Cl)c1 [Example 78, (S)-2-((4-(3-(((2-Chloro-4-methylphenyl)(methyl)amino)methyl)benzoyl)piperazin-1-yl)methyl)-1-(oxetan-2-ylmethyl)-1H-benzo[d]imidazole-6-carboxylic acid] |
| < 50 | N#Cc1ccc(OCc2nccc(OC3CCN(Cc4nc5ccc(C(=O)O)cc5n4CC4(CF)CC4)CC3)n2)c(F)c1 [Compound 343] |
| < 50 | Cc1cc(C(=O)O)cc2c1nc(CN1CCC(Oc3ccnc(COc4ccc(C#N)cc4F)c3)CC1)n2C[C@@H]1CCO1 [Compound 499, 2-{[4-({2-[(4-cyano-2-fluorophenoxy)methyl]pyridin-4-yl}oxy)piperidin-1-yl]methyl}-4-methyl-1-{[(2S)-oxetan-2-yl]methyl}-1H-1,3-benzodiazole-6-carboxylic acid] |
| < 50 | N#Cc1ccc(OCc2ccc(F)c(OC3CCN(Cc4nc5ccc(C(=O)O)cc5n4C[C@@H]4CCO4)CC3)n2)c(F)c1 [Example 330, (S)-2-((4-((6-((4-Cyano-2-fluorophenoxy)methyl)-3-fluoropyridin-2-yl)oxy)piperidin-1-yl)methyl)-1-(oxetan-2-ylmethyl)-1H-benzo[d]imidazole-6-carboxylic acid] |
| > 500 | O=C(O)c1ccc2nc(CN3CCc4[nH]c5ccc(OCc6ccc(Cl)cc6Cl)cc5c4C3)n(C[C@@H]3CCO3)c2c1 [Compound 142, 2-({8-[(2,4-dichlorophenyl)methoxy]-1H,2H,3H,4H,5H-pyrido[4,3-b]indol-2-yl}methyl)-1-{[(2S)-oxetan-2-yl]methyl}-1H-1,3-benzodiazole-6-carboxylic acid] |
| < 50 | CCn1cncc1Cn1c(CN2CCC(Cc3cnc(COc4ccc(Cl)cc4Cl)o3)CC2)nc2ccc(C(=O)O)cc21 [Compound 124, 2-{[4-({2-[(2,4-dichlorophenoxy)methyl]-1,3-oxazol-5-yl}methyl)piperidin-1-yl]methyl}-1-[(1-ethyl-1H-imidazol-5-yl)methyl]-1H-1,3-benzodiazole-6-carboxylic acid] |
| > 500 | CCn1cncc1Cn1c(CN2CCN(C(=O)c3ccc(COc4ccc(Cl)cc4Cl)s3)CC2)nc2ccc(C(=O)O)cc21 [Compound 71, 2-[(4-{5-[(2,4-dichlorophenoxy)methyl]thiophene-2-carbonyl}piperazin-1-yl)methyl]-1-[(1-ethyl-1H-imidazol-5-yl)methyl]-1H-1,3-benzodiazole-6-carboxylic acid] |
| < 50 | N#Cc1cc(F)c(OCc2nccc(OC3CCN(Cc4nc5ccc(C(=O)O)cc5n4C[C@@H]4CCO4)CC3)n2)cc1F [Example 498, (S)-2-((4-((2-((4-Cyano-2,5-difluorophenoxy)methyl)pyrimidin-4-yl)oxy)piperidin-1-yl)methyl)-1-(oxetan-2-ylmethyl)-1H-benzo[d]imidazole-6-carboxylic acid] |
| < 50 | CCn1cncc1Cn1c(CN2CCN(C(=O)c3cnc(COc4ccc(C5CC5)cc4Cl)o3)CC2)nc2ccc(C(=O)O)cc21 [Compound 160, 2-[(4-{2-[(2-chloro-4-cyclopropylphenoxy)methyl]-1,3-oxazole-5-carbonyl}piperazin-1-yl)methyl]-1-[(1-ethyl-1H-imidazol-5-yl)methyl]-1H-1,3-benzodiazole-6-carboxylic acid] |
| 50 to 500 | CCn1cncc1Cn1c(CN2CCc3[nH]c4ccc(OCc5ccc(Cl)cc5Cl)cc4c3C2)nc2ccc(C(=O)O)cc21 [Compound 143, 2-({8-[(2,4-dichlorophenyl)methoxy]-1H,2H,3H,4H,5H-pyrido[4,3-b]indol-2-yl}methyl)-1-[(1-ethyl-1H-imidazol-5-yl)methyl]-1H-1,3-benzodiazole-6-carboxylic acid] |
| < 50 | O=C(O)c1ccc2nc(CN3CCC(Oc4cccc(COc5ccc(Cl)cc5F)c4)CC3)n(C[C@@H]3CCO3)c2c1 [Compound 221, 2-[(4-{3-[(4-chloro-2-fluorophenoxy)methyl]phenoxy}piperidin-1-yl)methyl]-1-{[(2S)-oxetan-2-yl]methyl}-1H-1,3-benzodiazole-6-carboxylic acid] |
| < 50 | O=C(O)c1ccc2nc(CN3CCC(Oc4ccnc(COc5ccc(Cl)cc5Cl)c4)CC3)n(C[C@@H]3CCO3)c2c1 [Compound 168, 2-{[4-({2-[(2,4-dichlorophenoxy)methyl]pyridin-4-yl}oxy)piperidin-1-yl]methyl}-1-{[(2S)-oxetan-2-yl]methyl}-1H-1,3-benzodiazole-6-carboxylic acid] |
| < 50 | O=C(O)c1ccc2nc(CN3CCC(Oc4cccc(OCc5ccc(F)cc5Cl)c4)CC3)n(C[C@@H]3CCO3)c2c1 [Compound 207] |
| < 50 | O=C(O)c1cc(F)c2nc(CN3CCC(Oc4ccnc(COc5ccc(C(F)F)cc5F)n4)CC3)n(C[C@@H]3CCO3)c2c1 [Compound 312, 2-({4-[(2-{[4-(difluoromethyl)-2-fluorophenoxy]methyl}pyrimidin-4-yl)oxy]piperidin;-1-yl}methyl)-1-{[(2S)-oxetan-2-yl]methyl}-1H-1,3-benzodiazole-6-carboxylic acid] |
| < 50 | CN(c1cccc(C(=O)N2CCN(Cc3nc4ccc(C(=O)O)cc4n3C[C@@H]3CCO3)CC2)c1)c1ccc(C2CC2)cc1Cl [Compound 122, 2-[(4-{3-[(2-chloro-4-cyclopropylphenyl)(methyl)amino]benzoyl}piperazin-1-yl)methyl]-1-{[(2S)-oxetan-2-yl]methyl}-1H-1,3-benzodiazole-6-carboxylic acid] |
| < 50 | C[C@H]1C[C@@H](Oc2ccnc(COc3ccc(C#N)cc3Cl)n2)CCN1Cc1nc2ccc(C(=O)O)cc2n1C[C@@H]1CCO1 [Compound 477, 2-{[(2S,4S)-4-({2-[(2-chloro-4-cyanophenoxy)methyl]pyrimidin-4-yl}oxy)-2-methylpiperidin-1-yl]methyl}-1-{[(2S)-oxetan-2-yl]methyl}-1H-1,3-benzodiazole-6-carboxylic acid] |
| > 500 | O=C(O)c1ccc2nc(CN3CCN(C(=O)c4cccc(Oc5ccc(Cl)cc5)c4)CC3)n(C[C@@H]3CCO3)c2c1 [Compound 7, 2-({4-[3-(4-chlorophenoxy)benzoyl]piperazin-1-yl}methyl)-1-{[(2S)-oxetan-2-yl]methyl}-1H-1,3-benzodiazole-6-carboxylic acid] |
| < 50 | O=C(O)c1ccc2nc(CN3CCC(Cc4cccc(COc5ccc(Cl)cc5Cl)c4)CC3)n(C[C@@H]3CCCO3)c2c1 [Compound 151, 2-{[4-({3-[(2,4-dichlorophenoxy)methyl]phenyl}methyl)piperidin-1-yl]methyl}-1-{[(2S)-oxolan-2-yl]methyl}-1H-1,3-benzodiazole-6-carboxylic acid] |
| 50 to 500 | CCn1cncc1Cn1c(CN2CCC(Oc3ccccc3COc3ccc(Cl)cc3Cl)CC2)nc2ccc(C(=O)O)cc21 [Compound 272, 2-[(4-{2-[(2,4-dichlorophenoxy)methyl]phenoxy}piperidin-1-yl)methyl]-1-[(1-ethyl-1H-imidazol-5-yl)methyl]-1H-1,3-benzodiazole-6-carboxylic acid] |
| < 50 | CCn1cncc1Cn1c(CN2CCC(Cc3cccc(COc4ccc(F)cc4C#N)c3)CC2)nc2ccc(C(=O)O)cc21 [Compound 188, 2-{[4-({3-[(2-cyano-4-fluorophenoxy)methyl]phenyl}methyl)piperidin-1-yl]methyl}-1-[(1-ethyl-1H-imidazol-5-yl)methyl]-1H-1,3-benzodiazole-6-carboxylic acid] |
| > 500 | COc1ccc(Oc2cccc(C(=O)N3CCN(Cc4nc5ccc(C(=O)O)cc5n4C[C@@H]4CCO4)CC3)c2)cc1 [Compound 6, 2-({4-[3-(4-methoxyphenoxy)benzoyl]piperazin-1-yl}methyl)-1-{[(2S)-oxetan-2-yl]methyl}-1H-1,3-benzodiazole-6-carboxylic acid] |
| > 500 | CCn1cncc1Cn1c(CN2CCN(C(=O)c3cccc(Nc4ccc(C)cc4Cl)c3)CC2)nc2ccc(C(=O)O)cc21 [Compound 58, 2-[(4-{3-[(2-chloro-4-methylphenyl)amino]benzoyl}piperazin-1-yl)methyl]-1-[(1-ethyl-1H-imidazol-5-yl)methyl]-1H-1,3-benzodiazole-6-carboxylic acid] |
| 50 to 500 | CCn1cncc1Cn1c(CN2CCN(C(=O)c3cccc(N(C)c4ccc(C)cc4)c3)CC2)nc2ccc(C(=O)O)cc21 [Example 46, 1-((1-Ethyl-1H-imidazol-5-yl)methyl)-2-((4-(3-(methyl(p-tolyl)amino)benzoyl)piperazin-1-yl)methyl)-1H-benzo[d]imidazole-6-carboxylic acid] |
| < 50 | N#Cc1ccc(OCc2cccc(OC3CCN(Cc4nc5ccc(C(=O)O)nc5n4C[C@@H]4CCO4)CC3)n2)c(F)c1 [Example 372, (S)-2-((4-((6-((4-Cyano-2-fluorophenoxy)methyl)pyridin-2-yl)oxy)piperidin-1-yl)methyl)-3-(oxetan-2-ylmethyl)-3H-imidazo[4,5-b]pyridine-5-carboxylic acid] |
| > 500 | CCn1cncc1Cn1c(CN2CCN(C(=O)c3cccc(COc4ccc(C#N)cc4F)c3)CC2)nc2ccc(C(=O)O)cc21 [Compound 69, 2-[(4-{3-[(4-cyano-2-fluorophenoxy)methyl]benzoyl}piperazin-1-yl)methyl]-1-[(1-ethyl-1H-imidazol-5-yl)methyl]-1H-1,3-benzodiazole-6-carboxylic acid] |

— US20230089073A1 (Carmot Therapeutics, Inc., priority 2021, published 2023)
